Assay results as given in paper PMC11306077, “Diterpenoids target SARS-CoV-2 RdRp from the roots of Euphorbia fischeriana Steud” (Frontiers in Plant Science, 2024).

Target: T1, SARS-CoV-2 RdRp (RNA-dependent RNA polymerase, NSP12) (Severe acute respiratory syndrome coronavirus 2, UniProt P0DTD1)
T1 construct: gene rep
Assay: microscale thermophoresis (MST)
Format: binding

## C[C@H]1C(=O)CC[C@]2(C)[C@@H]1CC[C@@]13CC[C@@H]([C@@H](O)[C@H]12)[C@]1(COC(C)(C)O1)C3 [compound 1, (4R,5S,8S,9S,10R,11S,12S,16S)-ent-11α-hydroxy-16α,17-acetonide-19-noratisan-3-one]
  Kd: 31.1 µM
